Experimental data: the NIST ThermoML archive (doi:10.1021/je900542y)
Values joined by “and” are separate entries in the source; they are usually repeats but may differ in a detail not shown here. Identical values can stand only once. ± gives the expanded uncertainty stated by the source.

What was measured:
[1] = mn = molality of the nth substance listed, in mol/kg; settings: 298.15 K, 101 kPa, Liquid
[2] = 298.15 K; 101 kPa; Liquid

Compound `CO` [methanol] + CC[N+](CC)(CC)CC.[I-] has a mass density ([1]; m2 = 0) of 786.38 ± 0.49 kg/m3.

`CC[N+](CC)(CC)CC.[I-]` [tetraethylammonium iodide] + CC(C)=O gave a mass density ([1]; m1 = 0.0001) of 783.81 ± 0.5 kg/m3, a mass density ([1]; m1 = 0.0002) of 783.81 ± 0.5 kg/m3 and a mass density ([1]; m1 = 0.00536) of 784.1 ± 0.5 kg/m3. The mass density ([1]; m1 = 0.005361) was 784.11 ± 0.5 kg/m3, the mass density ([1]; m1 = 0.007105) was 784.2 ± 0.49 kg/m3 and the mass density ([1]; m1 = 0.007106) was 784.21 ± 0.49 kg/m3. The mass density ([1]; m1 = 0.007107) was 784.2 ± 0.49 kg/m3, the mass density ([1]; m1 = 0.008909) was 784.3 ± 0.5 kg/m3 and the mass density ([1]; m1 = 0.00891) was 784.3 ± 0.5 kg/m3. The mass density ([1]; m1 = 0.01242) was 784.5 ± 0.49 kg/m3, the mass density ([1]; m1 = 0.0142) was 784.6 ± 0.49 kg/m3 and the mass density ([1]; m1 = 0.0177) was 784.81 ± 0.49 kg/m3. It also gave a mass density ([1]; m1 = 0.01771) of 784.81 ± 0.49 kg/m3, a mass density ([1]; m1 = 0.02114) of 784.99 ± 0.49 kg/m3 and a mass density ([1]; m1 = 0.02115) of 785 ± 0.49 kg/m3.

For `CC[N+](CC)(CC)CC.[I-]` [tetraethylammonium iodide] + CO, the mass density ([1]; m1 = 0.0001) was 786.38 ± 0.49 kg/m3, the mass density ([1]; m1 = 0.0002) was 786.38 ± 0.49 kg/m3 and the mass density ([1]; m1 = 0.00354) was 786.54 ± 0.49 kg/m3. It also gave a mass density ([1]; m1 = 0.003541) of 786.54 ± 0.49 kg/m3, a mass density ([1]; m1 = 0.003542) of 786.54 ± 0.49 kg/m3 and a mass density ([1]; m1 = 0.007079) of 786.69 ± 0.49 kg/m3. It also gave a mass density ([1]; m1 = 0.00708) of 786.69 ± 0.49 kg/m3, a mass density ([1]; m1 = 0.007081) of 786.69 ± 0.49 kg/m3 and a mass density ([1]; m1 = 0.01062) of 786.85 ± 0.49 kg/m3. For the same compound, the mass density ([1]; m1 = 0.01063) was 786.85 ± 0.49 kg/m3, the mass density ([1]; m1 = 0.01416) was 787 ± 0.49 kg/m3 and the mass density ([1]; m1 = 0.01417) was 787 ± 0.49 kg/m3. For the same compound, the mass density ([1]; m1 = 0.0176) was 787.17 ± 0.49 kg/m3 and 787.18 ± 0.49 kg/m3, the mass density ([1]; m1 = 0.02124) was 787.31 ± 0.49 kg/m3 and the mass density ([1]; m1 = 0.02832) was 787.63 ± 0.49 kg/m3 and 787.62 ± 0.49 kg/m3.

With `CC#N` [acetonitrile] the mass density [2] was 776.01 ± 0.6 kg/m3 and 776.02 ± 0.59 kg/m3.

With `CC(C)=O` [acetone] the mass density [2] was 783.81 ± 0.5 kg/m3.

In the case of `CC[N+](CC)(CC)CC.[I-]` [tetraethylammonium iodide] + CC#N, the mass density ([1]; m1 = 0.0001) is reported as 776.01 ± 0.6 kg/m3, the mass density ([1]; m1 = 0.0002) is reported as 776.02 ± 0.59 kg/m3 and the mass density ([1]; m1 = 0.00354) is reported as 776.16 ± 0.59 kg/m3. The mass density ([1]; m1 = 0.003541) was 776.16 ± 0.59 kg/m3, the mass density ([1]; m1 = 0.007081) was 776.32 ± 0.59 kg/m3 and the mass density ([1]; m1 = 0.007082) was 776.32 ± 0.59 kg/m3. The mass density ([1]; m1 = 0.01062) was 776.47 ± 0.59 kg/m3, the mass density ([1]; m1 = 0.01064) was 776.46 ± 0.59 kg/m3 and the mass density ([1]; m1 = 0.01416) was 776.63 ± 0.59 kg/m3. For the same compound, the mass density ([1]; m1 = 0.01417) was 776.61 ± 0.59 kg/m3, the mass density ([1]; m1 = 0.0176) was 776.77 ± 0.59 kg/m3 and 776.78 ± 0.59 kg/m3 and the mass density ([1]; m1 = 0.02124) was 776.93 ± 0.59 kg/m3. It also gave a mass density ([1]; m1 = 0.02832) of 777.24 ± 0.59 kg/m3.

With `CC#N` [acetonitrile] + CC[N+](CC)(CC)CC.[I-] the mass density ([1]; m2 = 0) was 776.01 ± 0.6 kg/m3.

`CO` [methanol] gave a mass density [2] of 786.38 ± 0.49 kg/m3.

With `O=[N+]([O-])c1ccccc1` [nitrobenzene] the mass density [2] was 1198.91 ± 0.72 kg/m3.

In the case of `O=[N+]([O-])c1ccccc1` [nitrobenzene] + CC[N+](CC)(CC)CC.[I-], the mass density ([1]; m2 = 0) is reported as 1198.91 ± 0.72 kg/m3.

For `CC[N+](CC)(CC)CC.[I-]` [tetraethylammonium iodide] + O=[N+]([O-])c1ccccc1, the mass density ([1]; m1 = 0.0001) was 1198.91 ± 0.72 kg/m3, the mass density ([1]; m1 = 0.0002) was 1198.91 ± 0.72 kg/m3 and the mass density ([1]; m1 = 0.003538) was 1198.97 ± 0.72 kg/m3. For the same compound, the mass density ([1]; m1 = 0.007075) was 1199.04 ± 0.72 kg/m3, the mass density ([1]; m1 = 0.0106) was 1199.1 ± 0.72 kg/m3 and the mass density ([1]; m1 = 0.01415) was 1199.17 ± 0.72 kg/m3. The mass density ([1]; m1 = 0.01416) was 1199.17 ± 0.72 kg/m3, the mass density ([1]; m1 = 0.0177) was 1199.23 ± 0.72 kg/m3 and the mass density ([1]; m1 = 0.02119) was 1199.29 ± 0.72 kg/m3. For the same compound, the mass density ([1]; m1 = 0.02469) was 1199.36 ± 0.72 kg/m3 and 1199.35 ± 0.72 kg/m3.

`CC(C)=O` [acetone] + CC[N+](CC)(CC)CC.[I-] showed a mass density ([1]; m2 = 0) of 783.81 ± 0.5 kg/m3.
